Results: ChEMBL document CHEMBL1158875, “Plakinidine D, a new pyrroloacridine alkaloid from two ascidians of the genus Didemnum” (J Nat Prod, 1997)
Calls of active or inactive are those of the source. The rule behind the calls is not given here.

Tested on: HCT-116
Assay: Cytotoxicity against human HCT116 cells at 5 ug/mL
Format: functional, cell-based

**Q.** For `Nc1c2c(c3nc4ccccc4c4c3c1N=C4)NCCC2=O`, which Activity is on record?
**A.** The Activity was “Active”.
